From PMC9551036, “A selective and orally bioavailable VHL-recruiting PROTAC achieves SMARCA2 degradation in vivo” (Nature Communications, 2022) come the findings set out here.

Each structure is given as a SMILES string. Values joined by “and” are separate entries in the source; they are usually repeats but may differ in a detail not shown here. Equal values may be shown once. Read-outs that look alike come from different tables or passages of the source.

Test [1] has as its system NCI-H1568 cells. Kind of test: Cell viability assay (CellTiter Glo) in NCI-H1568. It is filed as cell-based, human. Particulars: for EC50: read-out: EC50 cell proliferation (CellTiter Glo); for IC50: NCI-H1568, (18h), CellTiter Glo, individual replicates, read-out: NCI-H1568 (18h) CTG. As to the method:
500–2000 cells were seeded in white, clear bottom 96-well plates (Corning or Perkin Elmer) in 180–200 µl medium per well. The next day, compounds were added using a digital dispenser and a T0 sample was measured for reference. […], and viability (luminescence) was measured using CellTiter Glo or CellTiter Glo 2.0 (Promega) according to manufacturer’s instructions after equilibrating cells and reagents at room temperature and 10–20 min incubation time while shaking.

Test [2] deals with T1, VCB: PROTAC: SMARCA2^BD ternary complex (Homo sapiens, UniProt P51531).
T1 construct: P51531-2, residues 1373-1493 with additional N-terminal SM residues; GST (TEV site) (N); His6 (TEV site) (N, cleaved yes); made in house; host or cells: SMARCA2^BD: Escherichia coli BL21(DE3)
Kind of test: TR-FRET ternary complex affinity and cooperativity, SMARCA2. It is filed as binding.

Test [3] has as its target T2, PBRM1 BD (Homo sapiens, UniProt Q86U86).
T2 construct: GST (TEV site) (N); made in house; host or cells: Escherichia coli BL21(DE3)
Kind of test: TR-FRET binary and ternary (PROTAC + VCB) affinity, PBRM1 bromodomain. Particulars: individual replicates. It is filed as binding. A general note: Time-resolved FRET reads energy transfer from a long-lived donor to a nearby acceptor.

The target of test [4] is SMARCA2 (Homo sapiens, UniProt P51531). Briefly: Imaging-based SMARCA2 protein assay in RKO cells. Particulars: individual replicates. It is filed as cell-based. Also on record: endogenous in cells; host or cells: RKO, NCI-H1568, A549, HCT116, LU99, HCC-364, HCT-15, HCC4006, SK-N-AS. On the procedure:
1250 cells per well in 60 µl medium were plated in flat bottom, poly-lysin coated 384-well plates (CellCarrier Ultra, Perkin Elmer). The next day, test compounds (10 µl of serial dilutions) and DMSO controls were diluted in DMEM medium such that the final DMSO content was <1% or were added using an ultrasound dispensing system. 4 wells were reserved for a background measurement. […] After aspirating the fixing solution, the cells were washed once with 25 µl PBS. 25 µl of blocking buffer (10% goat serum in PBS) was added and cells were incubated for 30 min, then washed once with PBS. […] Cells were again washed once with PBS. […] The cell layer was then washed once with 25 µl PBS, the wells were filled with 25 µl PBS and the plates were sealed with an adhesive sheet. They were then imaged on the Opera Phoenix (mean intensity in the nucleus). […] EC50 values were computed using a 4-parametric logistic model.

Test [5] addresses T3, (Homo sapiens, UniProt P51532).
T3 construct: P51532, residues 1448–1569 with additional N-terminal SM residues; GST (TEV site) (N); His6 (TEV site) (N, cleaved yes); made in house; host or cells: SMARCA4^BD: Escherichia coli BL21(DE3)
Kind of test: TR-FRET ternary complex affinity and cooperativity, SMARCA4. It is filed as binding.

The mark [6] stands for this setting: TR-FRET competition for SMARCA2BD, without VCB, mean ± SD, read-out: TR-FRET SMARCA2BD EC50.
[7] abbreviates: binary, PROTAC alone, individual replicates, read-out: SMARCA2 BD EC50.
Where [8] appears, read: PROTAC + VCB, read-out: Ternary PBRM1 BD EC50 (PROTAC + VCB).
Where [9] appears, read: binary, PROTAC alone, read-out: PBRM1 EC50.
[10] abbreviates: 4h, read-out: RKO (4h) SMARCA2 DC50.
[11] abbreviates: 18h, read-out: RKO (18h) SMARCA2 DC50.
The mark [12] stands for this setting: TR-FRET competition for SMARCA4BD, without VCB, mean ± SD, read-out: TR-FRET SMARCA4BD EC50.
Where [13] appears, read: binary, PROTAC alone, individual replicates, read-out: SMARCA4 BD EC50.

T1 sequence (P51531 with tags, fused parts or gaps isoform P51531-2): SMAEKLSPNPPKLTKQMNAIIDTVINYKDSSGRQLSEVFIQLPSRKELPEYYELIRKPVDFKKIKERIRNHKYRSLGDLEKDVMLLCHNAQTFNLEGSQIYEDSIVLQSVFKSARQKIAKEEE
T3 sequence (P51532 1448-1569): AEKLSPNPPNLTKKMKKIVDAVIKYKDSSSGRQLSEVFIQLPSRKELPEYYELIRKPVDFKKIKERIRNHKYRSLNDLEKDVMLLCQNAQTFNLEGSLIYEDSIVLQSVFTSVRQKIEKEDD
Chain of SMARCA2 (P51531 whole entry): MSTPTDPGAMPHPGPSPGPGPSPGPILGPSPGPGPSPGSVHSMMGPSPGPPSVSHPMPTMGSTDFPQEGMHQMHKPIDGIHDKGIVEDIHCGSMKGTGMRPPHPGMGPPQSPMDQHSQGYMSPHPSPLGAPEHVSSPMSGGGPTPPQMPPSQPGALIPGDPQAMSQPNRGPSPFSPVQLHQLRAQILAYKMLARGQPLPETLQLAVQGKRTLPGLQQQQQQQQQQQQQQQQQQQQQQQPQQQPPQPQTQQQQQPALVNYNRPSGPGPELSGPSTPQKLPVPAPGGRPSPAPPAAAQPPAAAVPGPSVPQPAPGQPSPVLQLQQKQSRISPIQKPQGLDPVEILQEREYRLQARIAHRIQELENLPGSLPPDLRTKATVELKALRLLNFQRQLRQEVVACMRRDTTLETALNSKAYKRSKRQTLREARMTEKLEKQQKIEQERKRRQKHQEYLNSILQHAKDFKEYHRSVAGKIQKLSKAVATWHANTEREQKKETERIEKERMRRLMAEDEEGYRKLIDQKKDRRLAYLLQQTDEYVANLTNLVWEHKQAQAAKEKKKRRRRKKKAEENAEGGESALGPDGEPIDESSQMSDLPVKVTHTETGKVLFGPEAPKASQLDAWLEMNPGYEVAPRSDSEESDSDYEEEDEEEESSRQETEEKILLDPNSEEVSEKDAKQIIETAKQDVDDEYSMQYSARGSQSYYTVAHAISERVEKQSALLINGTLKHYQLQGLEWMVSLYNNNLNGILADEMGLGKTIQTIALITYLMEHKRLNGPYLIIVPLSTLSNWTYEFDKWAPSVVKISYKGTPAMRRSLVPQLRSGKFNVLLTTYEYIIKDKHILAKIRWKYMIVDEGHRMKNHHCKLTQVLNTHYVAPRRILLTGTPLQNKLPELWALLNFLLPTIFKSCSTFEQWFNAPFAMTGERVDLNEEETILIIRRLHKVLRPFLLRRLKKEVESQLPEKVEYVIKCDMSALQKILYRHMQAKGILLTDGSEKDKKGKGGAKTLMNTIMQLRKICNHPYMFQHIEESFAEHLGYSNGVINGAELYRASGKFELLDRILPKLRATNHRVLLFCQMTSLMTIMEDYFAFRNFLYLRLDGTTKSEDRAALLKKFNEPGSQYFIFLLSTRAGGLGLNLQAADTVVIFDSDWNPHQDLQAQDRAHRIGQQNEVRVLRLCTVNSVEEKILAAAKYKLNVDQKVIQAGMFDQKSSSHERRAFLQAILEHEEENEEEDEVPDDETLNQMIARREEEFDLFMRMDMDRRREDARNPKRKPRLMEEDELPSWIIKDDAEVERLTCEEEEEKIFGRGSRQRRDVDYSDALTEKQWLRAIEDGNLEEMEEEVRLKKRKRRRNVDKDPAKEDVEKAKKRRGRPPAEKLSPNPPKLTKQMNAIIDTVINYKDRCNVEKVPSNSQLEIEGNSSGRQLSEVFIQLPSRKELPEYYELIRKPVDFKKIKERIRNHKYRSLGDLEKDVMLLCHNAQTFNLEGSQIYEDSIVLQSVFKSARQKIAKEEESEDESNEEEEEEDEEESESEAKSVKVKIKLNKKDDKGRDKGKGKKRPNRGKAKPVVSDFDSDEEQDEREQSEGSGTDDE

For `Cc1ncsc1-c1ccc(CNC(=O)[C@@H]2C[C@@H](O)CN2C(=O)[C@@H](NC(=O)C2(F)CC2)C(C)(C)C)c(OCCOCCOCCN2CCC(c3ccc4c(c3)n(C3CCCC3)c3nc(=O)c5c(Br)cccc5n43)CC2)c1` [compound 21], the EC50 in test [1] (NCI-H1568 ([…]), mean ± SD) was 223 ± 30 nM; in test [2] (setting [6]), 255 ± 9 nM; in test [2] (setting [7]), 246 nM and 264 nM and 255 nM; in test [3] (setting [8]), 33.9 nM and 37.8 nM and 41.4 nM; in test [3] (setting [9]), 71.9 nM and 80.2 nM and 77.4 nM; in test [5] (setting [12]), 520 ± 73 nM. The EC50 in test [5] (setting [13]) was 443 nM and 585 nM and 542 nM. In addition, the IC50 in test [1] was 257 nM and 199 nM and 216 nM. Moreover, the DC50 was above 25000 nM in test [4] (setting [10]); 77.5 nM and 151 nM and 100 nM in test [4] (setting [11]).
For the compound `Cc1ncsc1-c1ccc(CNC(=O)[C@@H]2C[C@@H](O)CN2C(=O)[C@@H](NC(=O)C2(F)CC2)C(C)(C)C)c(OCCOCCOCCOCCN2CCC(c3ccc4c(c3)n(C3CCCC3)c3nc(=O)c5c(Br)cccc5n43)CC2)c1` [compound 22], the EC50 was 187 ± 76 nM in test [1] (NCI-H1568 ([…]), mean ± SD); 274 ± 41 nM in test [2] (setting [6]); 242 nM and 328 nM and 288 nM and 245 nM in test [2] (setting [7]); 33.2 nM and 39.2 nM and 42.6 nM in test [3] (setting [8]); 84.2 nM and 107 nM and 111 nM (2×) in test [3] (setting [9]); 813 ± 126 nM in test [5] (setting [12]). Besides, the EC50 in test [5] (setting [13]) was 659 nM and 965 nM and 837 nM and 819 nM. Also, the IC50 in test [1] was 280 nM and 175 nM and 133 nM. The DC50 in test [4] (setting [10]) was 85.8 nM and 400 nM and 157 nM; in test [4] (setting [11]), 97.4 nM and 276 nM and 121 nM.
`Cc1ncsc1-c1ccc([C@H](COC(C)CN2CCC(c3ccc4c(c3)n(C3CCCC3)c3nc(=O)c5c(Br)cccc5n43)CC2)NC(=O)[C@@H]2C[C@@H](O)CN2C(=O)[C@@H](NC(=O)C2(N(C)C)CC2)C(C)(C)C)cc1` (some centres unmarked) [compound 10]: the EC50 was 16 ± 7 nM in test [1] (Homo sapiens, NCI-H1568, […]); 150 ± 52 nM in test [2] (setting [6]); 120 nM and 130 nM and 128 nM and 228 nM and 217 nM and 116 nM in test [2] (setting [7]); 6.43 nM and 7.96 nM and 8.03 nM and 9.7 nM in test [3] (setting [8]); 30.5 nM and 31.7 nM and 30 nM in test [3] (setting [9]); 191 ± 85 nM in test [5] (setting [12]). The EC50 in test [5] (setting [13]) was 108 nM and 250 nM and 259 nM. Also, the IC50 in test [1] was 21.5 nM and 20 nM and 8.75 nM. Further, the DC50 was 8.19 nM and 6.54 nM and 2.93 nM and 10.6 nM in test [4] (setting [10]); 1.26 nM and 3.06 nM and 6.17 nM in test [4] (setting [11]).
As for `Cc1ncsc1-c1ccc([C@H](CCCCN2CCC(c3ccc4c(c3)n(C3CCCC3)c3nc(=O)c5c(Br)cccc5n43)CC2)NC(=O)[C@@H]2C[C@@H](O)CN2C(=O)[C@@H](NC(=O)C2(F)CC2)C(C)(C)C)cc1` [compound 25], the EC50 is 7 ± 4 nM in test [1] (NCI-H1568 ([…]), mean ± SD); 87 ± 35 nM in test [2] (setting [6]); 179 nM and 54.5 nM and 63.5 nM and 111 nM and 66.9 nM and 57.7 nM and 73.7 nM and 97.8 nM and 88.9 nM and 103 nM and 118 nM and 101 nM and 123 nM and 55.7 nM in test [2] (setting [7]); 2.29 nM and 2.88 nM and 3.31 nM and 5.31 nM and 3.22 nM in test [3] (setting [8]); 33 nM and 36.4 nM and 33.2 nM and 57.3 nM and 26.6 nM in test [3] (setting [9]); 182 ± 57 nM in test [5] (setting [12]). The EC50 in test [5] (setting [13]) is 134 nM and 202 nM and 155 nM and 262 nM. Besides, the IC50 in test [1] is 11.9 nM and 5.25 nM and 6.51 nM. The DC50 is 4.26 nM and 1.82 nM and 3.89 nM and 3.46 nM in test [4] (setting [10]); 2 nM and 2.63 nM and 3.33 nM in test [4] (setting [11]).
In the case of `Cc1ncsc1-c1ccc([C@H](COC(C)(C)CN2CCC(c3ccc4c(c3)n(C3CCCC3)c3nc(=O)c5c(Br)cccc5n43)CC2)NC(=O)[C@@H]2C[C@@H](O)CN2C(=O)[C@@H](NC(=O)C2(F)CC2)C(C)(C)C)cc1` [compound 28], the EC50 is 16 ± 5 nM in test [1] (NCI-H1568 ([…]), mean ± SD); 130 ± 18 nM in test [2] (setting [6]); 132 nM and 140 nM and 145 nM and 139 nM and 134 nM and 133 nM and 154 nM and 106 nM and 96.3 nM and 137 nM in test [2] (setting [7]); 5.74 nM and 5.13 nM and 5.34 nM and 1.07 nM in test [3] (setting [8]); 37.2 nM and 28.8 nM and 29.6 nM and 10.8 nM in test [3] (setting [9]); 240 ± 55 nM in test [5] (setting [12]). The EC50 in test [5] (setting [13]) was 300 nM and 283 nM and 195 nM and 201 nM. Besides, in test [1], the IC50 was 16.7 nM and 21.6 nM and 18.3 nM and 17.1 nM and 20.5 nM and 6.45 nM. The DC50 in test [4] (setting [10]) was 14.7 nM and 15 nM and 30.1 nM and 11.8 nM; in test [4] (setting [11]), 3.23 nM and 5.17 nM and 7.73 nM and 5.43 nM.
